Experimental data: US20210330611A1, “THERAPY FOR NEUROLOGICAL DISEASES/DISORDERS” (priority 2020, published 2021)
Where two headings read alike, the source gives them in different places.

How the values were obtained:
[1] = test system: fibrin-induced microglia activation; assay: Image-based assay of fibrin-induced microglia activation (HTS and dose response); type: cell-based, rat; conditions: for inhibition at 10 µM: Rattus norvegicus, Microglia, read-out: Fibrin % inhibition
[2] = test system: LPS-induced microglia activation; assay: Image-based assay of LPS-induced microglia activation (HTS and dose response); type: cell-based, rat; conditions: for inhibition at 10 µM: Rattus norvegicus, Microglia, read-out: LPS % inhibition
[3] = test system: fibrin- and LPS-induced microglia activation; assay: cells; type: cell-based, rat
primary rat microglia [4] = assay: Cell toxicity (dead cells, size <150 μm2) in LPS assay
primary rat microglia [5] = assay: Cell toxicity (dead cells, size <150 μm2) in coated fibrin (cFib) assay;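 further: share of dead cells sized under 150 µm2 at 10 µM in fibrin-stimulated microglia HTS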
[6] = primary microglia HTS, 10 μM, fibrin-stimulated, cell size >800 μm^2 as marker of activation
[7] = primary microglia HTS, 10 μM, LPS-stimulated, cell size >800 μm^2 as marker of activation
[8] = HTS of 1907 compounds, quadrant by fibrin and LPS inhibition
[9] = primary microglia HTS, 10 μM, LPS assay, cell size <150 μm^2 as marker of toxicity
[10] = primary microglia HTS, 10 μM, fibrin assay, cell size <150 μm^2 as marker of toxicity
[11] = primary microglia HTS, fibrin stimulation, increased cell size (>800 μm^2) as marker of activation
[12] = 48 h, primary microglia HTS, LPS stimulation, increased cell size (>800 μm^2) as marker of activation
[13] = quadrant by fibrin and LPS inhibition in HTS of 1907 compounds
[14] = primary microglia HTS, LPS stimulation, decreased size (<150 μm^2) as marker of toxicity
[15] = primary microglia HTS, fibrin stimulation, decreased size (<150 μm^2) as marker of toxicity
[16] = primary microglia HTS, fibrin stimulation, activation = cell size >800 μm2
[17] = 48 h, primary microglia HTS, LPS stimulation, activation = cell size >800 μm2
[18] = primary microglia HTS, LPS stimulation, toxicity = cell size <150 μm2
[19] = primary microglia HTS, fibrin stimulation, toxicity = cell size <150 μm2
[20] = primary HTS, 10 μM, fibrin-stimulated primary microglia
[21] = primary HTS, 10 μM, LPS-stimulated primary microglia
[22] = primary HTS, 10 μM, LPS assay, dead cells size <150 μm2
[23] = primary HTS, 10 μM, fibrin assay, dead cells size <150 μm2

## C[C@]12CC[C@H]3[C@@H](CC[C@@]45O[C@@H]4C(O)=C(C#N)C[C@]35C)[C@@H]1CC[C@@H]2O [Trilostane]
[1]; [6]
  inhibition at 10 µM: -24%
[2]; [7]
  inhibition at 10 µM: 11%
[3]; [8]
  Quadrant (FIG. 5b): Q4
Primary rat microglia [4]; [9]
  LPS % cell toxicity: 0%
Primary rat microglia [5]; [10]
  Fibrin % cell toxicity: 0%

## CN1CCOC(c2ccccc2)c2ccccc2C1 (centres unmarked) [Nefopam]
[1]; [11]
  inhibition at 10 µM: -15%
[2]; [12]
  inhibition at 10 µM: 3%
[3]; [13]
  Quadrant (FIG. 5b): Q4
Primary rat microglia [4]; [14]
  LPS % cell toxicity: 0%
Primary rat microglia [5]; [15]
  Fibrin % cell toxicity: 0%

## CCOc1ccccc1OCCN[C@H](C)Cc1ccc(OC)c(S(N)(=O)=O)c1.Cl [Tamsulosin Hydrchloride]
[1]; [6]
  Fibrin % inhibition: −31%
[2]; [7]
  LPS % inhibition: 12%
[3]; [8]
  Quadrant (FIG. 5b): Q4
Primary rat microglia [4]; [9]
  LPS % cell toxicity: 0%
Primary rat microglia [5]; [10]
  Fibrin % cell toxicity: 0%

## CCN(CCO)CCCC(C)Nc1ccnc2cc(Cl)ccc12 (centres unmarked) [Hydroxychloroquine]
[1]; [16]
  inhibition at 10 µM: 35%
[2]; [17]
  inhibition at 10 µM: 17%
[3]; [13]
  Quadrant (FIG. 5b): Q4
Primary rat microglia [4]; [18]
  LPS % cell toxicity: 0%
Primary rat microglia [5]; [19]
  Fibrin % cell toxicity: 1%

## O=C1OC2(c3ccc(O)cc3Oc3cc(O)ccc32)c2ccccc21 [Fluorescein]
[1]; [16]
  inhibition at 10 µM: -3%
[2]; [17]
  inhibition at 10 µM: 4%
[3]; [13]
  Quadrant (FIG. 5b): Q4
Primary rat microglia [4]; [18]
  LPS % cell toxicity: 0%
Primary rat microglia [5]; [19]
  Fibrin % cell toxicity: 0%

## CC(C)Nc1ncccn1 [Isaxonine]
[1]; [16]
  inhibition at 10 µM: -46%
[2]; [17]
  inhibition at 10 µM: -1%
[3]; [13]
  Quadrant (FIG. 5b): Q4
Primary rat microglia [4]; [18]
  LPS % cell toxicity: 0%
Primary rat microglia [5]; [19]
  Fibrin % cell toxicity: 0%

## O=C1C(CC[S+]([O-])c2ccccc2)C(=O)N(c2ccccc2)N1c1ccccc1 (centres unmarked) [Sulfinpyrazone]
[1]; [6]
  inhibition at 10 µM: -6%
[2]; [7]
  inhibition at 10 µM: 13%
[3]; [8]
  Quadrant (FIG. 5b): Q4
Primary rat microglia [4]; [9]
  LPS % cell toxicity: 1%
Primary rat microglia [5]; [10]
  Fibrin % cell toxicity: 1%

## CC(=O)OCC1=C(C(=O)[O-])N2C(=O)[C@@H](NC(=O)CCCC(N)C(=O)O)[C@H]2SC1.[Na+] (some centres unmarked) [Cephalosporin C Sodium]
[1]; [20]
  Fibrin % inhibition: −34%
[2]; [21]
  LPS % inhibition: 8%
[3]; primary HTS, 10 μM
  Quadrant (FIG. 5b): Q4
Primary rat microglia [4]; [22]
  LPS % cell toxicity: 0%
Primary rat microglia [5]; [23]
  Fibrin % cell toxicity: 1%

## Oc1c(Cl)cc(Cl)c(Cl)c1Cc1c(O)c(Cl)cc(Cl)c1Cl [Hexachlorophene]
[1]
  inhibition at 10 µM: -19%
[2]; 48 h
  inhibition at 10 µM: 15%
[3]; [13]
  Quadrant (FIG. 5b): Q4
Primary rat microglia [4]; [18]
  LPS % cell toxicity: 0%
Primary rat microglia [5]; [19]
  Fibrin % cell toxicity: 0%

## NP(N)(=O)NC(=O)c1ccc(F)cc1 [Flurofamide]
[1]; [16]
  inhibition at 10 µM: 3%
[2]; [17]
  inhibition at 10 µM: -12%
[3]; [13]
  Quadrant (FIG. 5b): Q4
Primary rat microglia [4]; [18]
  LPS % cell toxicity: 0%
Primary rat microglia [5]; [19]
  Fibrin % cell toxicity: 0%

## CCOC(=O)C1=C[C@@H](OC(CC)CC)[C@H](NC(C)=O)[C@@H](N)C1 [Oseltamivir Phosphate]
[1]; [11]
  Fibrin % inhibition: −7%
[2]; primary microglia HTS, LPS stimulation, increased cell size (>800 μm^2) as marker of activation
  LPS % inhibition: 13%
[3]; [13]
  Quadrant (FIG. 5b): Q4
Primary rat microglia [4]; [14]
  LPS % cell toxicity: 0%
Primary rat microglia [5]; [15]
  Fibrin % cell toxicity: 1%

## CCOC(=O)CC(=O)N1CCSC1COc1ccccc1OC (centres unmarked) [Moguisteine]
[1]; [11]
  inhibition at 10 µM: -2%
[2]; [12]
  inhibition at 10 µM: 15%
[3]; [13]
  Quadrant (FIG. 5b): Q4
Primary rat microglia [4]; [14]
  LPS % cell toxicity: 0%
Primary rat microglia [5]; [15]
  Fibrin % cell toxicity: 1%

## CC(c1cc2ccccc2s1)N(O)C(N)=O (centres unmarked) [Zileuton]
[1]; [6]
  inhibition at 10 µM: -12%
[2]; [7]
  inhibition at 10 µM: 21%
[3]; [8]
  Quadrant (FIG. 5b): Q4
Primary rat microglia [4]; [9]
  LPS % cell toxicity: 0%
Primary rat microglia [5]; [10]
  Fibrin % cell toxicity: 0%

## O=C(O)c1cc(=O)c2ccccc2o1 [Chromocarb]
[1]; [20]
  inhibition at 10 µM: -7%
[2]; [21]
  inhibition at 10 µM: 5%
[3]; primary HTS, 10 μM
  Quadrant (FIG. 5b): Q4
Primary rat microglia [4]; [22]
  LPS % cell toxicity: 0%
Primary rat microglia [5]; [23]
  Fibrin % cell toxicity: 1%

## N#Cc1nn(-c2c(Cl)cc(C(F)(F)F)cc2Cl)c(N)c1[S+]([O-])C(F)(F)F (centres unmarked) [Fipronil]
[1]; [16]
  inhibition at 10 µM: -5%
[2]; [17]
  inhibition at 10 µM: 12%
[3]; [13]
  Quadrant (FIG. 5b): Q4
Primary rat microglia [4]; [18]
  LPS % cell toxicity: 0%
Primary rat microglia [5]; [19]
  Fibrin % cell toxicity: 1%

## COc1ccc(Cc2nccc3cc(OC)c(OC)cc23)cc1OC [Papaverine]
[1]; [11]
  inhibition at 10 µM: 12%
[2]; [12]
  inhibition at 10 µM: 27%
[3]; [13]
  Quadrant (FIG. 5b): Q4
Primary rat microglia [4]; [14]
  LPS % cell toxicity: 0%
Primary rat microglia [5]; [15]
  Fibrin % cell toxicity: 0%
